In patent US20240398989A1, “METHODS AND COMPOSITIONS FOR DIAGNOSIS AND TREATMENT OF METABOLIC DISORDERS” (The Broad Institute, Inc., priority 2021, published 2024):
“Also recorded” adds a separate entry of the source.

Assays:
visceral adipocytes = test: LipocyteProfiler of isoproterenol-treated vs DMSO-treated visceral adipocytes (AMSCs, day 14); format: cell-based, human; conditions: for BODIPY-related Granularity (lipid droplet sizes): isoproterenol vs DMSO, across the full granularity size spectra
Description: For imaging, cells were seeded at 10K cells/well in 96-well plates (Cell Carrier, Perkin Elmer #6005550) and induced 4 days after seeding. For RNAseq, cells were seeded at 40K cells/well in 12-well dishes (Corning). […] Adipogenic differentiation was induced by changing culture medium to induction medium. […] Visceral-derived AMSCs were differentiated by further adding 2% FBS as well as 0.1 mM oleic and linoleic acid to the induction and differentiation media. For isoproterenol stimulation experiments, 1 μM isoproterenol was added to the differentiation media and cells treated overnight. Human primary AMSCs and PHH were plated in 96-well CellCarrier plates (Perkinelmer #6005550). AMSCs were differentiated for 14 days and high content imaging was performed at day 0, day 3, day 8 and day 14 of adipogenic differentiation. Primary human hepatocytes were stained after 48 h in culture, and 24h following treatment with oleic acid or metformin. On the respective day of the assay, cell culture media was removed and replaced by 0.5 μM Mitotracker staining solution (1 mM MitoTracker Deep Red stock (Invitrogen #M22426) diluted in culture media) to each well followed by 30 minutes incubation at 37° C.' protected from light. […] PFA was removed and cells were washed once with Hank's Balanced Salt Solution (1×), HBSS (Gibco #14025076). […] Finally, staining solution was removed and cells were washed three times with HBSS. Cells were imaged using a Opera Phenix High content screening system. […] Prior to processing, flat field illumination correction was performed using functions generated from the median intensity across each plate. Nuclei were identified using the DAPI stain and then expanded to identify whole cells using the Phalloidin/WGA and BODIPY stains. Regions of cytoplasm were then determined by removing the Nuclei from the Cell segmentations. Speckles of BODIPY staining were enhanced to assist in detection of small and large individual Lipid objects. For each object set measurements were collected representing size, shape, intensity, granularity, texture, colocalization and distance to neighbouring objects. After LipocyteProfiler (LP) feature extraction data was filtered by applying automated and manual quality control steps. […] Second, every field was assessed visually and fields that were corrupted by experimental induced technical artifacts were removed. Furthermore, blocklisted features (Way, Gregory (2019): Blocklist Features-Cell Profiler. figshare. […] After filtering data were normalised per plate using a robust scaling approach (Pedregosa et al. 2011) that subtracts the median from each variable and divides it by the interquartile range. Individual wells were aggregated for downstream analysis by cell depot and day of differentiation.

subcutaneous adipocytes = test: LipocyteProfiler of isoproterenol-treated vs DMSO-treated subcutaneous adipocytes (AMSCs, day 14); format: cell-based, human; conditions: subcutaneous adipocytes/AMSCs at day 14, isoproterenol
Description: For imaging, cells were seeded at 10K cells/well in 96-well plates (Cell Carrier, Perkin Elmer #6005550) and induced 4 days after seeding. For RNAseq, cells were seeded at 40K cells/well in 12-well dishes (Corning). […] Adipogenic differentiation was induced by changing culture medium to induction medium. […] Visceral-derived AMSCs were differentiated by further adding 2% FBS as well as 0.1 mM oleic and linoleic acid to the induction and differentiation media. For isoproterenol stimulation experiments, 1 μM isoproterenol was added to the differentiation media and cells treated overnight. Human primary AMSCs and PHH were plated in 96-well CellCarrier plates (Perkinelmer #6005550). AMSCs were differentiated for 14 days and high content imaging was performed at day 0, day 3, day 8 and day 14 of adipogenic differentiation. Primary human hepatocytes were stained after 48 h in culture, and 24h following treatment with oleic acid or metformin. […] Regions of cytoplasm were then determined by removing the Nuclei from the Cell segmentations. […] Second, every field was assessed visually and fields that were corrupted by experimental induced technical artifacts were removed. […]

CC(C)NCC(O)c1ccc(O)c(O)c1 (stereo not shown) [isoproterenol]
Mitochondrial Intensity (visceral adipocytes; 24 hour isoproterenol (1 μM) vs DMSO-treated controls, day 14, p=0.0413): increases | mitochondrial Texture_Entropy (visceral adipocytes; 24 hour isoproterenol vs DMSO-treated controls, p=0.0092): differences; also recorded: increases | BODIPY Texture Entropy (visceral adipocytes; 24 hour isoproterenol vs DMSO-treated controls, p=0.032): decrease | BODIPY MedianIntensity (visceral adipocytes; 24 hour isoproterenol vs DMSO-treated controls, p=0.041): decrease | BODIPY-related Granularity (lipid droplet sizes) (visceral adipocytes): decreased | BODIPY-related Granularity (lipid droplet sizes) (visceral adipocytes; listed as Isoproterenol): reduces | effect on morphological profile (subcutaneous adipocytes): no effect
